Source: patent US20110172099A1, “Imidazole and Triazole Compounds, Their Use and Agents Containing the Same” (BASF SE, priority 2008, published 2011)

Tested on: Phakopsora pachyrhizi
Experiment: Example G2: curative activity against soybean rust caused by Phakopsora pachyrhizi (greenhouse)
Assay type: in vivo
Conditions: 600 ppm; soybean seedlings, curative spray two days after inoculation, assessed after a further 10 days; untreated plants 100% infected

Question: Which infection does the source give for `CC(Cc1cccc(Cl)c1)CC(C(O)C(C)(C)C)n1cncn1` (mixture of isomers) [I.A39a] here?
Answer: 0%

Question: `CC(Cc1cc(F)ccc1F)CC(C(O)C(C)(C)C)n1cncn1` (mixture of isomers) [I.A26b] was tested. Which infection did it give?
Answer: 0%

Question: With `CC(C)(C)C(O)C(CCCc1cccc(F)c1F)n1cncn1` (racemic) [I.A25b] as the molecule, how does the infection read?
Answer: 0%

Question: `CC(Cc1ccc(F)cc1F)CC(C(O)C(C)(C)C)n1cncn1` (mixture of isomers) [I.A30a] was tested. Which infection did it give?
Answer: 0%

Question: With `CC(C)(C)C(O)C(CCCc1cc(F)ccc1F)n1cncn1` (racemic) [I.A24b] as the molecule, how does the infection read?
Answer: 0%

Question: With `CC(Cc1ccc(F)cc1F)CC(C(O)C(C)(C)C)n1cncn1` (stereo not shown) [I.A30b, 7-(2,4-difluorophenyl)-2,2,6-trimethyl-4-[1,2,4]triazol-1-ylheptan-3-ol] as the molecule, how does the infection read?
Answer: 0%

Question: For `CC(CCC(C(O)C(C)(C)C)n1cncn1)c1ccccc1F` (mixture of isomers) [I.A36b], which infection is on record?
Answer: 0%

Tested on: Phytophthora infestans
Experiment: not given
Assay type: in vivo
Conditions: tomato, protective, after 6 days, untreated control 90

Question: With `CC(C)(C)C(O)C(CCCc1ccc(Cl)cc1Cl)n1cncn1` (stereo not shown) as the molecule, how does the “Infection (%) at 600 ppm C1” value read?
Answer: 7%

Question: For `CC(Cc1ccc(Cl)cc1Cl)CC(C(O)C(C)(C)C)n1cncn1` (stereo not shown) [reference compound], which “Infection (%) at 600 ppm C1” value is on record?
Answer: 90%

Tested on: Botrytis cinerea
Experiment: C2: gray mold on bell pepper leaves caused by Botrytis cinerea, 1 day protective application (comparison with the prior art)
Assay type: in vivo
Conditions: after 5 days, untreated control 100
Description: The active compounds were prepared separately as a stock solution with 25 mg of active compound, which was made up to 10 ml with a mixture of acetone and/or DMSO and the emulsifier Uniperol® EL (wetting agent with emulsifying and dispersing action based on ethoxylated alkylphenols) in the volume ratio solvent/emulsifier of from 99 to 1. Subsequently, it was made up to 100 ml with water. This stock solution was diluted with the described solvent/emulsifier/water mixture to the active compound concentration indicated below. Alternatively, the active compounds were used as a commercially available ready-to-use solution and diluted with water to the active compound concentration indicated. Bell pepper seedlings were, after 2-3 leaves were well developed, sprayed to run off point with an aqueous suspension having the active compound concentration stated below. The next day, the treated plants were inoculated with a spore suspension of Botrytis cinerea in a 2% biomalt solution. The test plants were then placed in a dark acclimatized chamber at 22 to 24° C. and high atmospheric humidity. After 5 days, the extent of the fungal infection on the leaves could be determined visually in %.

Question: How did the “Infection (%) at 600 ppm C2” value turn out when `CC(C)(C)C(O)C(CCCc1ccccc1Cl)n1cncn1` (stereo not shown) [drawing 19] was run?
Answer: 7%

Question: `CC(C)(C)C(O)C(CCCc1ccccc1Cl)n1cncn1` (stereo not shown) [drawing 21] was tested. Which “Infection (%) at 600 ppm C2” value did it give?
Answer: 10%

Question: Which “Infection (%) at 600 ppm C2” value does the source give for `CC(C)(C)C(O)C(CCCc1ccc(Cl)cc1)n1cncn1` (stereo not shown) [reference compound] here?
Answer: 70%

Question: Which “Infection (%) at 600 ppm C2” value does the source give for `CC(C)(C)C(O)C(CCCc1cccc(Cl)c1)n1cncn1` (stereo not shown) here?
Answer: 15%
